Where a name gives a salt, the structure may show the parent alone. Read-outs that look alike come from different tables or passages of the source.
What was measured:
phosphodiesterase = conditions: cited from earlier work

angle of repose (after being mixed with Colloidal Silicon Dioxide)	angle of repose (as is)	SMILES	phosphodiesterase activity (phosphodiesterase)
–	–	COC(=O)[C@H](c1ccccc1Cl)N1CCc2sccc2C1 [Clopidogrel]	did not inhibit
40	greater than 45	COC(=O)[C@H](c1ccccc1Cl)N1CCc2sccc2C1 [Clopidgrel salt, methyl(+)-(S)-α(2-chlorophenyl)-6,7-dihydrothieno[3,2-c]pyridine-5(4H)-acetate sulfate (1:1)]	–

— patent publication US20130011473A1, “Preparation Method Of The Solid Formulation Of Clopidogrel Bisulfate” (priority 2010, published 2013)
